{
  "source": "patent US20170246586A1",
  "about": "“PROCESS AND APPARATUS FOR SEPARATING ENTRAINED AMINES FROM A GAS STREAM” (Carbonoro B.V., priority 2014, published 2017)",
  "key": {"[1]": {"assay": "Water solubility (20° C.)", "format": "physicochemical"}, "[2]": {"conditions": "20° C.; cited from earlier work"}, "[3]": {"assay": "amine content of the aqueous phase after phase separation of heated MCA/DMCA mixture in water", "format": "physicochemical", "conditions": "3 M MCA:DMCA 1:3 wt./wt. in water, phases separated", "procedure": "Aqueous samples containing MCA and/or DMCA were analysed by UPLC-MS/MS. The UPLC apparatus was a Waters ACQUITY° system. Injection volume was 3 μl. Mobile phase A: 10 mM ammonium acetate, 0.1 wt. % formic acid in water. Mobile phase B: methanol. Column: ACQUITY UPLC® HSB T3, 1.8 μ2.1×50 mm. Column temperature: 30° C. Gradient (Table 1). The mass spectrometer was an AB SCIEX™ API 3200 apparatus.\nA mixture (200 ml) of MCA and DMCA (total amine concentration is 3 M; ratio MCA:DMCA is 1:3 wt./wt.≈1:2.67 mol/mol; total absolute amount MCA is 92.8 g/l; total amount of DMCA is 278.4 g/l) in water was heated at various temperatures for 24 h during which phase separation occurred. The phases were separated and the aqueous phase was analysed for determining the amine content. As can be observed from the data in Table 9, the amount of amine decreases with increasing temperature."}, "[4]": {"conditions": "J. Sangster, J. Phys. Chem. Ref. Data 18, 111, 1989; cited from earlier work"}},
  "data": [
    {"molecule": "CN(C)C1CCCCC1", "note": "[DMCA, N,N-dimethylcyclohexylamine]", "values": [
      {"measurement": "solubility", "setting": "[1]", "value": "~480", "unit": "mM"},
      {"measurement": "Water solubility", "setting": "[2]", "value": 54, "unit": "mg/mL"}
    ]},
    {"molecule": "CNC1CCCCC1", "note": "[MCA, N-methylcyclohexylamine]", "values": [
      {"measurement": "amine content of aqueous phase (MCA)", "setting": "[3]; heated 24 h at 40 ° C.", "value": 6940, "unit": "mg/L"},
      {"measurement": "amine content of aqueous phase (MCA)", "setting": "[3]; heated 24 h at 50 ° C.", "value": 5630, "unit": "mg/L"},
      {"measurement": "amine content of aqueous phase (MCA)", "setting": "[3]; heated 24 h at 60 ° C.", "value": 5090, "unit": "mg/L"},
      {"measurement": "amine content of aqueous phase (MCA)", "setting": "[3]; heated 24 h at 70 ° C.", "value": 4520, "unit": "mg/L"}
    ]},
    {"molecule": "NC1CCCCC1", "note": "[cyclohexylamine]", "values": [
      {"measurement": "measured log P", "setting": "[4]", "value": "1.49±0.10"}
    ]}
  ]
}
